The values that follow come from patent US11781984B2, “Fluorescent method to quantify copper or platinum based on catalysis” (University of Pittsburgh—Of the Commonwealth System of …, priority 2018, dated 2023).

Series [1] is described as follows: Kinetic study to determine turnover frequency of copper-mediated depropargylation of PPE. The settings on record: 200 nM Cu^2+, 20 μM PPE, 160 μM DMAPPP. The method, then:
To determine whether this method was a catalytic method, we monitored the reaction over time (FIG. 11). A standard curve was prepared for dichlorofluorescein (DCF) by dissolving the solid in EtOH to a concentration of 20 mM. The DCF was then diluted to 500 μM in EtOH. A stock solution was prepared by adding 500 mM pH 8.5 borate buffer (600 μL), EtOH (81.6 μL), 500 μM DCF in EtOH (32 μL), 20 mM DMAPPP in DMSO (6.4 μL). This stock solution (200 μL) was then transferred to a black 96-well plate.
The diluent was prepared by mixing 500 mM borate pH 8.5 buffer (9.00 mL), EtOH (1.70 mL), and 20 mM DMAPPP in DMSO (96 μL). The diluent (100 μL) was transferred to the black 96-well plate. 2× serial dilutions were performed by removing 100 μL of the stock solution from the wells and adding it to the wells containing the diluent. […] The fluorescence of these solutions was measured and a standard curve was generated.
The working solution was prepared by mixing 500 mM borate pH 8.5 buffer (1.20 mL), EtOH (187 μL), 800 μM PPE in EtOH (40 μL), 20 mM DMAPPP in DMSO (12.8 μL) in a conical tube. […] 0 or 2.0 μM Cu^2+ (20 μL) was then added to the wells and the fluorescence was measured every 5 min for 2 h.
The fluorescence value was converted to a concentration of Pittsburgh Green using the linear regression generated from the standard curve of DCF. The fluorescence vs. time was then plotted.

The test system of series [2] is HeLa cells. Put plainly: Fluorescence imaging of copper ions in live HeLa cells. Format: cell-based. The settings on record: HeLa cells loaded with 1 mM CuSO4, 20 μM PPE, 160 μM DMAPPP, 15 min. The method, then: Finally, we applied our method to imaging cellular pools of copper. HeLa cells were loaded with 1 mM CuSO4 in DMEM for 30 min at 37° C. The cells were washed. PPE and DMAPPP were added during imaging to a final concentration of 20 μM and 160 μM, respectively. Images were obtained on a Nikon Ti microscope equipped with a 60× (1.4 NA) objective.

The nature of series [3]: Fluorescence intensity of Pittsburgh Green versus PPE. Format: physicochemical. The method, then: All fluorescence measurements were obtained using a Modulus II Microplate Multimode Reader. Fluorescence was measured after exciting samples with 490 nm light and emission was measured between 510-570 nm. All fluorescence measurements were obtained at room temperature.
Series [4] has as its system HeLa cells. Put plainly: Fluorescence imaging of platinum in live HeLa cells. Format: cell-based. To be noted: 1 μM APE, 200 μM TFPP, 1 mM K2PtCl4, 20 min. The method, then:
We then applied this method for cellular imaging. HeLa cells were seeded in 35-mm dishes and were incubated overnight in an incubator (37° C., 5% CO2 atmosphere) in DMEM supplemented with 10% bovine calf serum and 1% penicillin/streptomycin. Cells were loaded with APE and TFPP to a final concentration of 1 μM and 200 μM, respectively, in 1% DMSO in DMEM for 20 min. Following this, cells were washed twice with ˜2 mL HBSS. HBSS was used as the imaging medium. Brightfield images were taken, as well as the initial fluorescence image. Immediately after taking the first fluorescence image, a solution of K2PtCl4 in PBS was added to a final concentration of 1 mM.
Cellular images were taken using an Olympus IX81 microscope with a 10× objective. Brightfield images were taken using a 3 ms exposure. Fluorescence images were taken as a time series, with an image taken every 30 s for 20 min, using an 850 ms exposure. Images were processed using ImageJ software; background fluorescence was removed from the fluorescence images using a rolling ball radius of 50.0 pixels.

Take Propargyl Pittsburgh Green ether [PPE]: the “concentration of reaction product (Pittsburgh Green) produced” value in series [1] (after one hour) is given as “approximately 480 nM”. Also, the turnover frequency in series [1] (borate pH 8.5) is recorded as about 2.4 per hour. In addition, the fluorescence within cells result in series [2] is reported as “time-dependent increase in fluorescence”. Also, in series [3], the “ratio of fluorescence intensities Pittsburgh Green fluorophore : PPE” value is reported as 200-400 :1.

In the case of allyl Pittsburgh Green ether [APE], the “increase of fluorescence intensity in cells” value in series [4] came to 1.5 fold.
